Holding throughout (type): ADME
The target of series [1] is T1, CYP2B6 (Homo sapiens, UniProt P20813).
T1 sequence (P20813 whole entry): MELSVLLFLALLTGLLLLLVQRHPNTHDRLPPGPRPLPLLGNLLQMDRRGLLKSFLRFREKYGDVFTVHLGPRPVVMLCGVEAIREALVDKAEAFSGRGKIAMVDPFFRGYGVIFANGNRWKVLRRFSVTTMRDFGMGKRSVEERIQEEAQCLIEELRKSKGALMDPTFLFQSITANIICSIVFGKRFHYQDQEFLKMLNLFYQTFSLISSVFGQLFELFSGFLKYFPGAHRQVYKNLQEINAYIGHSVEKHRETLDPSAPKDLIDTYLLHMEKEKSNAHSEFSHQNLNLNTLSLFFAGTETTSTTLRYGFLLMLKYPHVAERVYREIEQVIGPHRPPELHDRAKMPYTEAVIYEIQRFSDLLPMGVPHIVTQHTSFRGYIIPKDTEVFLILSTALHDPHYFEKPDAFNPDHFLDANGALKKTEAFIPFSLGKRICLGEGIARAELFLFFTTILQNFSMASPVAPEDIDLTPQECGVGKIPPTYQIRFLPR
Briefly: Inhibition of CYP2B6 in human liver microsomes assessed as enzyme-mediated metabolite formation at 0.1 uM using bupropion as substrate incubated for 5 mins followed by NADPH addition measured after 30 mins by LC-MS/MS analysis relative to control. On the set-up: scale not given: the % may be the effect or the level left. To be noted: probe bupropion, read-out: Activity. (In general: Liver microsomes are vesicles of endoplasmic reticulum, rich in cytochrome P450 enzymes.)

In series [2] the target is T1, CYP2B6. Nature of the series: Inhibition of CYP2B6 in human liver microsomes assessed as enzyme-mediated metabolite formation at 10 uM using bupropion as substrate incubated for 5 mins followed by NADPH addition measured after 30 mins by LC-MS/MS analysis relative to control. Also noted: scale not given: the % may be the effect or the level left. To be noted: probe bupropion, read-out: Activity.

The target of series [3] is T2, Cytochrome P450 2B6 (Homo sapiens, UniProt P20813).
T2 sequence (P20813 whole entry): T1 sequence (P20813 whole entry)
Nature of the series: Inhibition of CYP2B6 in human liver microsomes assessed as enzyme-mediated metabolite formation using bupropion as substrate incubated for 5 mins followed by NADPH addition measured after 30 mins by LC-MS/MS analysis.

Series [4] deals with T3, CYP2C9 (Homo sapiens, UniProt P11712). Briefly: Inhibition of CYP2C9 in human liver microsomes assessed as enzyme-mediated metabolite formation at 1 uM using diclofenac as substrate incubated for 5 mins followed by NADPH addition measured after 30 mins by LC-MS/MS analysis relative to control. On the set-up: scale not given: the % may be the effect or the level left. To be noted: probe diclofenac, read-out: Activity.
T3 sequence (P11712 whole entry): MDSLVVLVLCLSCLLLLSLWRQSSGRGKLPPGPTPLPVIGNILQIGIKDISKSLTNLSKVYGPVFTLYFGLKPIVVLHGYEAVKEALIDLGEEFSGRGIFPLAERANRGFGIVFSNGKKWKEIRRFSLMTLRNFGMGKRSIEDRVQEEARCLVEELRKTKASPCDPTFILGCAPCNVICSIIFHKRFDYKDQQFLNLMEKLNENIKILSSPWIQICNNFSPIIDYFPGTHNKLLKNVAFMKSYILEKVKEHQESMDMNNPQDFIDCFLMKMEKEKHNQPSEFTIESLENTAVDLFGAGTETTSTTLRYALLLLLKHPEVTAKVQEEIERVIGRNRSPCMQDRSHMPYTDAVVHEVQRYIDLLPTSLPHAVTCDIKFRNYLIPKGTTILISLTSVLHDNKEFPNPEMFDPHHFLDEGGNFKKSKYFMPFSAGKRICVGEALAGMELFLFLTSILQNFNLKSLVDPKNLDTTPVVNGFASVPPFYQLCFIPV

The target in series [5] is Cytochrome P450 2C9 (Homo sapiens, UniProt P11712). Nature of the series: Inhibition of CYP2C9 in human liver microsomes assessed as enzyme-mediated metabolite formation using diclofenac as substrate incubated for 5 mins followed by NADPH addition measured after 30 mins by LC-MS/MS analysis.
Cytochrome P450 2C9, sequence (P11712 whole entry): as above
The target in series [6] is CYP2C19 (Homo sapiens, UniProt P33261). Nature of the series: Inhibition of CYP2C19 in human liver microsomes assessed as enzyme-mediated metabolite formation at 30 uM using (S)-mephenytoin as substrate incubated for 5 mins followed by NADPH addition measured after 30 mins by LC-MS/MS analysis relative to control. The following applies: probe (S)-mephenytoin, read-out: Activity. Also noted: scale not given: the % may be the effect or the level left.
CYP2C19, sequence (P33261 whole entry): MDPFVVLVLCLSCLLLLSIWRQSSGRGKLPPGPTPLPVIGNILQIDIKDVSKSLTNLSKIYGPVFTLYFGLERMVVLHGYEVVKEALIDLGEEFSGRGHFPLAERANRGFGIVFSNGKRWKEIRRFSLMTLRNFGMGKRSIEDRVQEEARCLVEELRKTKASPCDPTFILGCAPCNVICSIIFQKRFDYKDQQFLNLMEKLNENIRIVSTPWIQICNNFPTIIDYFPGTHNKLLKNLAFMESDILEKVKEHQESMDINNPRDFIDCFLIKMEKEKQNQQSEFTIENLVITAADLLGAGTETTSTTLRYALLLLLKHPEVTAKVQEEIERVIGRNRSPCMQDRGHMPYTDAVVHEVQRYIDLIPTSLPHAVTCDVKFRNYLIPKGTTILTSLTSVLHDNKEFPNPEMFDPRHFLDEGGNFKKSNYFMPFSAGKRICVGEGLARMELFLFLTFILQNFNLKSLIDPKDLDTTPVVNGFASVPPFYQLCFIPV

For series [7], the target named is T4, CYP2D6 (Homo sapiens, UniProt P10635). Nature of the series: Inhibition of CYP2D6 in human liver microsomes assessed as enzyme-mediated metabolite formation at 0.1 uM using dextromethorphan as substrate incubated for 5 mins followed by NADPH addition measured after 30 mins by LC-MS/MS analysis relative to control. Also noted: scale not given: the % may be the effect or the level left. The following applies: probe dextromethorphan, read-out: Activity.
T4 sequence (P10635 whole entry): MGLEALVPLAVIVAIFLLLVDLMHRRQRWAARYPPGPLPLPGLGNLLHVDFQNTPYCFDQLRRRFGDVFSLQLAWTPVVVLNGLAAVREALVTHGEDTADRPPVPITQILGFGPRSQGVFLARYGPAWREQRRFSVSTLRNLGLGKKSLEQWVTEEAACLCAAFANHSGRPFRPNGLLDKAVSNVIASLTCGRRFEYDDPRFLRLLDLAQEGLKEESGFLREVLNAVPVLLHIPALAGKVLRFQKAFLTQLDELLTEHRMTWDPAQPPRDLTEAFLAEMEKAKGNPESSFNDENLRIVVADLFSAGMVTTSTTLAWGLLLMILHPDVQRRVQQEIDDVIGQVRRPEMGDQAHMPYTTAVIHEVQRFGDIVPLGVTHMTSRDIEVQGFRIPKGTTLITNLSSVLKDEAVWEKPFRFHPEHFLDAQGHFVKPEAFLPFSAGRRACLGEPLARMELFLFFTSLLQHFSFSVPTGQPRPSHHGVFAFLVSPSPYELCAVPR

Series [8] addresses T4, CYP2D6. Briefly: Inhibition of CYP2D6 in human liver microsomes assessed as enzyme-mediated metabolite formation at 10 uM using dextromethorphan as substrate incubated for 5 mins followed by NADPH addition measured after 30 mins by LC-MS/MS analysis relative to control. The following applies: probe dextromethorphan, read-out: Activity. Also noted: scale not given: the % may be the effect or the level left.

The target of series [9] is T4, CYP2D6. Nature of the series: Inhibition of CYP2D6 in human liver microsomes assessed as enzyme-mediated metabolite formation at 30 uM using dextromethorphan as substrate incubated for 5 mins followed by NADPH addition measured after 30 mins by LC-MS/MS analysis relative to control. On the set-up: scale not given: the % may be the effect or the level left. The following applies: probe dextromethorphan, read-out: Activity.

The target of series [10] is T5, CYP2C8 (Homo sapiens, UniProt P10632).
T5 sequence (P10632 whole entry): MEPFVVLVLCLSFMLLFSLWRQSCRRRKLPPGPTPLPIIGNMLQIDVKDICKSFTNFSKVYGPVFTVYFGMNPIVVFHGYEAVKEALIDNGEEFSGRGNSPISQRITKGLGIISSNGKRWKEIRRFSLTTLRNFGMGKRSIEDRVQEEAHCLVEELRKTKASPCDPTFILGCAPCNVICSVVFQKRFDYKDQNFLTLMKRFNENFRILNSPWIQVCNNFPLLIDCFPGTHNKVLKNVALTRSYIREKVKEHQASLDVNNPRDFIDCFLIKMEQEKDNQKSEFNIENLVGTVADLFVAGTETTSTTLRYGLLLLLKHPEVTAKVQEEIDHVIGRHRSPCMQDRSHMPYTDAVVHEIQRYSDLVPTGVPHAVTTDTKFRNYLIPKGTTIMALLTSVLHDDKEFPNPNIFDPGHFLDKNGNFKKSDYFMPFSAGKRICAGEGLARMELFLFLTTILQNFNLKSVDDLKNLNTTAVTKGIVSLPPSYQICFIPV
Nature of the series: Inhibition of CYP2C8 in human liver microsomes assessed as enzyme-mediated metabolite formation at 10 uM using paclitaxel as substrate preincubated for 20 mins followed by substrate addition measured after 30 mins in presence of NADPH by LC-MS/MS analysis relative to control. To be noted: probe paclitaxel, read-out: Activity. On the set-up: scale not given: the % may be the effect or the level left.

For series [11], the target named is T3, CYP2C9. Nature of the series: Inhibition of CYP2C9 in human liver microsomes assessed as enzyme-mediated metabolite formation at 0.3 uM using diclofenac as substrate preincubated for 20 mins followed by substrate addition measured after 30 mins in presence of NADPH by LC-MS/MS analysis relative to control. Also noted: scale not given: the % may be the effect or the level left. To be noted: probe diclofenac, read-out: Activity.

The target of series [12] is T3, CYP2C9. Briefly: Inhibition of CYP2C9 in human liver microsomes assessed as enzyme-mediated metabolite formation at 30 uM using diclofenac as substrate preincubated for 20 mins followed by substrate addition measured after 30 mins in presence of NADPH by LC-MS/MS analysis relative to control. On the set-up: scale not given: the % may be the effect or the level left. The following applies: probe diclofenac, read-out: Activity.

The target in series [13] is T4, CYP2D6. Nature of the series: Inhibition of CYP2D6 in human liver microsomes assessed as enzyme-mediated metabolite formation at 0.1 uM using dextromethorphan as substrate preincubated for 20 mins followed by substrate addition measured after 30 mins in presence of NADPH by LC-MS/MS analysis relative to control. The following applies: probe dextromethorphan, read-out: Activity. On the set-up: scale not given: the % may be the effect or the level left.

For series [14], the target named is Cytochrome P450 2D6 (Homo sapiens, UniProt P10635). Briefly: Inhibition of CYP2D6 in human liver microsomes using dextromethorphan as substrate preincubated for 20 mins followed by substrate addition measured after 30 mins in presence of NADPH by LC-MS/MS analysis.
Cytochrome P450 2D6, sequence (P10635 whole entry): as the sequence (P10635 whole entry) above
Series [15] addresses T6, CYP3A4 (Homo sapiens, UniProt P08684). Briefly: Inhibition of CYP3A4 in human liver microsomes assessed as enzyme-mediated metabolite formation at 0.1 uM using midazolam as substrate preincubated for 20 mins followed by substrate addition measured after 30 mins in presence of NADPH by LC-MS/MS analysis relative to control. On the set-up: scale not given: the % may be the effect or the level left. The following applies: probe midazolam, read-out: Activity.

Series [16] has as its target T6, CYP3A4. Briefly: Inhibition of CYP3A4 in human liver microsomes assessed as enzyme-mediated metabolite formation at 30 uM using testosterone as substrate preincubated for 20 mins followed by substrate addition measured after 30 mins in presence of NADPH by LC-MS/MS analysis relative to control. Also noted: scale not given: the % may be the effect or the level left. To be noted: probe testosterone, read-out: Activity.

pIC50: −log10 of the molar value.

T6 sequence (P08684 whole entry): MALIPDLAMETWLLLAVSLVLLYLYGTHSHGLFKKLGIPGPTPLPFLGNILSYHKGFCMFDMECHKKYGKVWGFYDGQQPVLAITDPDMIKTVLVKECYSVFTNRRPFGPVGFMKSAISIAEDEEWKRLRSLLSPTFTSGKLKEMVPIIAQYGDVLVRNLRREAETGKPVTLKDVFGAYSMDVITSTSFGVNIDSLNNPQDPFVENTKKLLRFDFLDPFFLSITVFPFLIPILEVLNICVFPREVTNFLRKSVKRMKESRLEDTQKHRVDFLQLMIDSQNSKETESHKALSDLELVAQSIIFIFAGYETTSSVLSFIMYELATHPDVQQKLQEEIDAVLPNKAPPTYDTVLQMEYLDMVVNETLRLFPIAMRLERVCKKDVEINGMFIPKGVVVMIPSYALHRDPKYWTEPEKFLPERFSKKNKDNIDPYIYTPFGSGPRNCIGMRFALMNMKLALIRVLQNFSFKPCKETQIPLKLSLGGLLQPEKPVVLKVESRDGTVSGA

One may read the pIC50 as −log10 of the IC50, conventionally taken in molar units. For the compound `CCCCCCCC(=O)CCc1ccc(O)c(OC)c1`, the activity at 0.5 h, 0.1 µM in series [1] is 93.6%; in series [7], 112%; in series [13], 89.5%; in [15] it was 96.3%. Further, the activity at 0.5 h, 10 µM in [2] was 53.9%; in series [8] it was 60.4%; in series [10], 49%. For the same compound, the pIC50 in series [3] is 4.81; in series [5], 4.87; in [14] it was less than 4.52. Moreover, the activity at 0.5 h, 1 µM in series [4] is 76.6%. Further, the activity at 0.5 h, 30 µM is 42% in series [6], 53.8% in series [9], 46.9% in [12] and 62.3% in series [16]. Besides, in [11], the activity at 0.5 h, 0.3 µM was determined as 72.6%.

The values are drawn from ChEMBL document CHEMBL4007467, “Effects of 6-paradol, an unsaturated ketone from gingers, on cytochrome P450-mediated drug metabolism” (Bioorg Med Chem Lett, 2017).
